From ChEMBL document CHEMBL1157778, “Frontal affinity chromatography-mass spectrometry useful for characterization of new ligands for GPR17 receptor” (J Med Chem, 2010)

Assays:
Type in all cases: functional, cell-based
[1] = molecular target: T1, Uracil nucleotide/cysteinyl leukotriene receptor (Homo sapiens, UniProt Q13304); assay: Antagonist activity at human GPR17 expressed in human 1321N1 cells assessed as inhibition of UDP-glucose-induced [35S]GTPgammaS binding after 30 mins by rapid filtration assay
[2] = Agonist activity at human GPR17 R255I mutant expressed in human 1321N1 cells assessed as induction of [35S]GTPgammaS binding after 30 mins by rapid filtration assay
[3] = molecular target: T1, Uracil nucleotide/cysteinyl leukotriene receptor; assay: Agonist activity at human GPR17 expressed in human 1321N1 cells assessed as induction of [35S]GTPgammaS binding after 30 mins by rapid filtration assay
[4] = Antagonist activity at human GPR17 R255I mutant expressed in human 1321N1 cells assessed as inhibition of UDP-glucose-induced [35S]GTPgammaS binding after 30 mins by rapid filtration assay

T1 sequence (Q13304 whole entry): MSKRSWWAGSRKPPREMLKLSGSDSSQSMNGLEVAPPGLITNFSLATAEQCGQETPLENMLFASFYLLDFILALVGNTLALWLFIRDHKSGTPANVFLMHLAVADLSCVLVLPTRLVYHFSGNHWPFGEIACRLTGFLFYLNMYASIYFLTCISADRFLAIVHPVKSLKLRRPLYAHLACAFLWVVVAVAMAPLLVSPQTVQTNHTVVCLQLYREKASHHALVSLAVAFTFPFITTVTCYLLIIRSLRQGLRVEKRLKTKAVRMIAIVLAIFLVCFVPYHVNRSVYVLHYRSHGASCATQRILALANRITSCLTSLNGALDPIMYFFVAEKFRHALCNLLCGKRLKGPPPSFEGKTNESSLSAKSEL

SMILES	IC50 [1] [nM]	EC50 [3] [nM]	further results
O=c1[nH]c(=O)n([C@@H]2O[C@H](COP(=O)(O)OP(=O)(O)O)[C@@H](O)[C@H]2O)cc1I	–	945	EC50 [2]: 1870 nM
Nc1nc(Cl)nc2c1ncn2[C@H]1C[C@H](OP(=O)(O)O)[C@@H](COP(=O)(O)O)O1	582	–	–
CNc1ncnc2c1ncn2[C@H]1C[C@H](OP(=O)(O)O)[C@@H](COP(=O)(O)O)O1	508	–	IC50 [4]: 227 nM
Nc1nc(C#Cc2ccccc2)nc2c1ncn2[C@@H]1O[C@H](COP(=O)(O)OP(=O)(O)OP(=O)(O)O)[C@@H](O)[C@H]1O	–	0.036	EC50 [2]: 0.0254 nM

Continued, in another order:

IC50 [1] [nM]	EC50 [3] [nM]	SMILES	further results
112	–	CNc1ncnc2c1ncn2[C@@H]1O[C@H](COP(=O)(O)OP(=O)(O)OP(=O)(O)O)[C@@H](O)[C@H]1O	–
–	1.4	O=P(O)(O)OP(=O)(O)OP(=O)(O)OC[C@H]1O[C@@H](n2cnc3c(NC4CCCC4)ncnc32)[C@H](O)[C@@H]1O	–
–	11	CNc1nc(Cl)nc2c1ncn2[C@@H]1O[C@H](COP(=O)(O)OP(=O)(O)OP(=O)(O)O)[C@@H](O)[C@H]1O	–
–	1.7	CNc1nc(Cl)cc2c1ncn2[C@@H]1O[C@H](COP(=O)(O)OP(=O)(O)OP(=O)(O)O)[C@@H](O)[C@H]1O	–
